In PubChem BioAssay (NCI) one finds GI50 and TGI data, which are given here for 36 molecules.

Common to all, as to test: NCI anticancer screen, dose series, 48 h
Test [1] concerns T-47D breast.
In test [2] the test system is MDA-N.
In test [3] the test system is LXFL 529 NSCLC.
Test [4] relates to RXF-631 renal.
Test [5] deals with DLD-1 colon.
Test [6] deals with KM20L2 colon.
Test [7] has as its system XF 498 CNS.

Where “and” joins values, the source holds several entries; their conditions need not be identical. Equal entries are not always repeated.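 Interpolation was linear, between the two tested concentrations surrounding the appropriate level; five concentrations were tested over 48 hours in 96-well plates. The concentration for 50% growth inhibition is given as GI50. TGI: total growth inhibition.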

Regarding `COc1ccc2c(c1)OC(N)=C(C#N)C2c1ccc(F)c(F)c1` (stereo unspecified), in test [1], the GI50 was 0.334 µM and the TGI was > 55.3 µM.
Taken in the same sequence, the figures for `CN(CCNc1ccc(C(=N)N)cc1)c1ccc(C(=N)N)cc1` were 23.9 µM and > 100 µM.
Consider `N#CC1(C#N)C2C=CC(C3CC=CC32)C1(C#N)C#N` (stereo unspecified), for which, in test [1], the GI50 was 2.78 µM; the TGI was 8.65 µM and 13.2 µM.
In the case of `CN1CCN(C(=O)OCc2nc3c(N4CCOCC4)nc(-c4ccccc4)nc3n2C)CC1`, in test [1], the GI50 was 1.53 µM and the TGI came to 4.51 µM.
With `CC(C)c1ccc2c(c1)CCC1C(C)(CN)CCCC21C` (stereo unspecified), the TGI amounted to 3.3 µM in test [1] and 2.86 µM in test [2].
For `NS(=O)(=O)c1ccc(N=Nc2c(O)[nH]c3cccc(CCc4ccncc4)c23)cc1`, in test [1], the GI50 was > 25 µM and the TGI is > 25 µM.
For the molecule `CCCC(c1cc(C(C)(C)C)c(O)cc1C)c1cc(C(C)(C)C)c(O)cc1C`, the results for the TGI in test [1] and in test [2] were 8.92 µM and 3.91 µM, respectively.
As to `Cc1cc(C)c2c(=O)cc(-c3ccc(F)cc3)[nH]c2n1`, the TGI in test [1] was > 100 µM. In test [2], the GI50 was 25 µM and the TGI was 67.9 µM.
As to `Cc1cccc2c1NC(=O)[C@@H](NC(=O)[C@H](CCC(F)(F)F)[C@H](CCC(F)(F)F)C(N)=O)N=C2c1cccc(F)c1`, in test [1], the GI50 was 34.5 µM and the TGI was > 100 µM.
Consider `Cc1ccc([I+]c2ccc(C)cc2)cc1`, for which, in test [1], the GI50 is 3.69 µM and the TGI came to 54.2 µM.
Take `CO[C@@H]1[C@H](N(C)C(=O)c2ccccc2)C[C@@H]2O[C@]1(C)n1c3ccccc3c3c4c(c5c6ccccc6n2c5c31)C(=O)NC4=O`: in test [1], the GI50 was 0.811 µM and the TGI is > 100 µM.
As to `S=C1NC(c2ccccc2)=NC(Cc2ccccc2)(c2ccccc2)N1c1ccccc1` (stereo unspecified), the TGI in test [3], in test [4], in test [5] and in test [6] was > 100 µM each time.
Consider `OC1CCC(COC(c2ccccc2)(c2ccccc2)c2ccccc2)O1` (stereo unspecified), for which the TGI in test [1] was determined as 38.2 µM; in test [2] it was 34.5 µM.
As for `CN(CC(=O)O)S(=O)(=O)c1ccc(Cl)cc1`, the TGI in test [7], in test [3], in test [5] and in test [6] was > 100 µM throughout.
For the molecule `COc1cc2c3c(n(CCCNC(C)(C)CO)c(=O)c2cc1OC)-c1cc2c(cc1C3=O)OCO2`, in test [1], the GI50 is 3.47 µM and the TGI was 47.6 µM.
Regarding `S=c1sc2sc(=S)sc2s1`, the TGI in test [3] is 26.9 µM; in test [4] it was 39.1 µM; in test [5], > 100 µM; in test [6] it was > 100 µM.
Regarding `CC(=O)NS(=O)(=O)c1ccc(-n2nc(-c3ccccc3)cc2-c2cc(O)ccc2O)cc1`, in test [1], the GI50 is > 100 µM and the TGI is > 100 µM.
Consider `O=C(NCCNc1nccc(-c2c(-c3ccc(F)cc3)nc3sccn23)n1)Nc1cccc(C(F)(F)F)c1`, for which, in test [1], the GI50 is 2.15 µM and the TGI stood at 8.48 µM.
As for `CSc1nc(SC)c2c(C)cn(Cc3ccccc3)c2n1`, the TGI in test [1] and in test [2] was > 100 µM throughout.
For the molecule `NNC(=S)N/N=C/c1ccccn1`, in test [1], the GI50 was 2.44 µM and the TGI is > 100 µM.
On to `COC(=O)CCC(=O)C(CC(=O)OC)C(=O)CCC(=O)NCCc1ccccc1` (stereo unspecified), for which the TGI in test [3], in test [4] and in test [6] was > 100 µM each time.
Consider `O=C([CH-]C(=O)c1ccccc1)c1ccccc1.O=C([CH-]C(=O)c1ccccc1)c1ccccc1.[CH2-]CCC.[CH2-]CCC.[Sn+4]`, for which, in test [6], the GI50 is 1.57 µM and the TGI is 3.11 µM.
Turning to `Nc1ncnc2occ(-c3ccc(NC(=O)Nc4cc(C(F)(F)F)ccc4F)cc3)c12`, in test [1], the GI50 is 6.42 µM and 3.5 µM; the TGI is 16.9 µM and 10.9 µM.
Consider `O=C(O)c1ccc(NCn2nc(-c3ccccc3O)oc2=S)cc1O`, for which, in test [1], the GI50 was > 100 µM and the TGI was > 100 µM.
With `O=C(O)c1cc(C(=O)C(=O)c2cc(C(=O)O)c(O)c3ccccc23)c2ccccc2c1O`, the TGI in test [1] and in test [2] was > 100 µM each time.
Regarding `Oc1c(CCl)cc(Cl)cc1Cc1cc(Cl)cc(Cc2cc(Cl)cc(CCl)c2O)c1O`, in test [1], the GI50 was 2.21 µM and the TGI was 9.39 µM.
For `COc1ccc(/C=C/C(=O)c2ccc(B(O)O)cc2)cc1O`, in test [1], the GI50 is 13.5 µM and the TGI amounted to 50.9 µM.
With `CCOC(=O)Nc1nc(-c2ccccc2)c(C)s1`, the TGI in test [1] and in test [2] was > 100 µM in each case.
Turning to `Fc1ccc(-c2nn3c(COc4ccccc4Cl)nnc3s2)cc1Oc1ccccc1`, in test [1], the GI50 is 34.5 µM and the TGI is > 100 µM.
Take `O=C1C2=C(c3ccccc31)C(c1ccccc1Cl)NC(=S)N2` (stereo unspecified): the TGI in test [7], in test [3], in test [5] and in test [6] was > 100 µM throughout.
As to `CN1C(=O)CNS1(=O)=O`, the TGI in test [7], in test [3], in test [4] and in test [5] was > 100 µM in each case.
As for `CC(=O)N[C@@H](Cc1ccc(OP(=O)(O)O)cc1)C(=O)N[C@H]1CCC(=O)N2CCC[C@@H](C(=O)NCc3cccc4ccccc34)N2C1=O`, in test [1], the GI50 is > 25 µM and the TGI is > 25 µM.
Consider `O=C(O)COc1ccc2c3c1C(=O)CCC3CO2` (stereo unspecified), for which the TGI in test [7], in test [3], in test [5] and in test [6] was > 100 µM each time.
Regarding `Cc1cc(S(=O)(=O)Nc2n[nH]c(-c3ccc(Cl)cc3)c2C#N)c(S)cc1Cl`, in test [1], the GI50 was > 100 µM and the TGI was > 100 µM.
In the case of `CCN1C2=C(SC(=S)C1=C1SC(C(=O)c3ccccc3)=C(C(=O)c3ccccc3)S1)SC(=Nc1ccccc1)C2=O`, in test [1], the GI50 was 19.6 µM and the TGI is > 100 µM.
Taken in the same sequence, the figures for `N#C/C(=C\c1ccc([N+](=O)[O-])cc1)n1nnc2cc(F)c(F)cc21` were 1.09 µM and 2.74 µM.
